Assay results published in US10772884B2, “Sulphate salts of N-(3-(4-(3-(diisobutylamino)propyl)piperazin-1-yl)propyl)-1H-benzo[d]imidazol-2-amine, preparation thereof and use of the same” (ALZPROTECT, priority 2012, dated 2020).
Where a name gives a salt, the structure may show the parent alone.

Assays:
[1] = XRPD analysis of crystallinity; type: physicochemical; conditions: powder, ambient
Method: X-ray powder diffraction (XRPD) analysis is performed on a Brüker—AXS D8 Advance diffractometer, using a copper anti-cathode, a mono-crystalline silicon sample holder and a position sensitive detector. Instrument operating conditions for X-rays pattern acquisition are described in Table 2.
The powder sample is dispersed on the silicon sample holder in a way to avoid preferred orientation (not randomly oriented crystals) and to ensure planarity of the specimen surface.

[2] = DSC analysis of crystalline phase; type: physicochemical; conditions: DSC endotherm
Method: DSC spectra. TA Instrument, DSC Q10.
DSC spectra were recorded on a TA DSC Q10 instrument within a temperature range of −10° C. to 300° C. or 400° C. and with 10° C. increments.

[3] = salt formation results (physical form); type: physicochemical
Method: The hydrochloride, hydrobromide, acetate, tartrate, fumarate, malate, oxalate and sulphate salts of N-(3-(4-(3-(diisobutylamino)propyl)piperazin-1-yl)propyl)-1H-benzo[d]imidazol-2-amine were prepared according to procedures similar to those described in the previous examples or standard salt formation methods well known in the art.

[4] = sample left standing open to the air (hygroscopicity, stability); type: physicochemical; conditions: listed as chloride salt
From the text: Both sulphate salts precipitated as solids. They were found stable when left open to the air. In contrast to the chloride salt, no hygroscopicity issue was observed.

[5] = system: APP metabolism in SH-5Y5Y cells (human neuroblastoma cell line overexpressing wild type human APP); assay: In vitro APP metabolism assay; type: cell-based; conditions: 0.3, 1, 3 and 10 μM, 24 h
Method: In Vitro APP Metabolism Assay
This assay was performed using SH-5Y5Y cells (human neuroblastoma cell line overexpressing wild type human APP) which were treated for 24 h with the sulphate salt of example 2. This test was carried out at four different compound concentrations of 0.3, 1, 3 and 10 μM. Quantification of different metabolites was achieved by western-blot analysis. CTFa, CTFβ and AICD were analysed using anti-actin ((I-19) (SC-1616 Santa Cruz Biotechnology; 1:1000 from 200 μg/ml stock) as an internal control and anti-C term APP antibody (1:250000 in washing buffer). Protein concentrations were determined by the BCA Protein Assay Kit (Thermo Scientific). Samples (20 μg total protein) were separated by 16% SDS-PAGE according to the molecular weight of each protein, and transferred to nitrocellulose membranes.

[6] = system: lipid peroxidation; assay: Chronic treatment 3-months, LPO levels (modified FOX assay); type: in vivo, C57Bl6 female mice; conditions: mice, 0.5, 1 or 3 mg/kg in drinking water, hippocampi
From the text: (§1) Neuropathological disorders are also characterized by abnormal phosphorylation of Tau protein (AT100). Hyperphosphorylation of the tau protein (on specific sites) can result in the intracellular accumulation of neurofibrillary tangles (NFTs), involved in the pathogenesis of Alzheimer's disease and other tauopathies. One axis of the study was thus to study the effect of the sulphate salt of example 2 on this abnormal phosphorylation. In parallel, such effect was also monitored with regards to the non-pathological phosphorylation of Tau protein (AT8) which should remain unaffected. Another axis of this study was thus the impact of the sulphate salt of example 2 on oxidative stress (OS). Therefore, levels of lipidic peroxidation, a well known marker for the evaluation of oxidative stress, were determined. […]
4-month old C57Bl6 female mice were provided with 0.5, 1 or 3 mg/kg of compound of example 2 dissolved in their drinking water. […] Volume consumed was calculated by weighing each bottle after each week and the remaining volume was discarded.
LPO levels measurements: the level of lipid peroxidation in hippocampi is determined as cumene hydroperoxide (CHP) equivalents and expressed as CHP equivalents per wet weight of tissue and as percentage of control group data following the modified FOX assay.

[7] = water solubility; type: physicochemical
[8] = system: APP metabolism; assay: In vivo APP metabolism assay, chronic treatment 1-month; set-up: species or system Sprague Dawley rats; conditions: rats, 1 or 10 mg/kg/day in drinking water, one month
Method: (§2) In vivo experiments were carried out on 4-month old C57Bl6 female mice or 2-month old Sprague Dawley rats.
Chronic Treatment: 1-Month
Rats were provided for one month with 1 or 10 mg/kg/day of the compound of example 2 dissolved in their drinking water. […] The animals were sacrificed after one month and levels of CTFα and CTFβ in the frontal cortex (FC) and/or the hippocampus (HIP) were measured by western-blot analysis as previously described. Dose dependent results are shown on FIGS. 22-a and 22-b. […] The frontal cortex is generally the first region of the brain to be affected by amyloid plaques formation in abnormal APP metabolism related diseases while the hippocampus, which is highly involved in memory and recollection processes, is latterly but severely affected. The sulphate salt of example 2 thus has very positive effect on APP metabolism in both the frontal cortex and the hippocampus and could is therefore of interest in the treatment of neurodegenerative diseases, in particular for both early and advanced stages of abnormal APP metabolism related diseases.

[9] = system: Tau protein; assay: Chronic treatment 3-months, Tau protein phosphorylation; type: in vivo, C57Bl6 female mice; conditions: mice, 0.5, 1 or 3 mg/kg in drinking water, brain tissues
From the text: Chronic Treatment: 3-Months
as §1, with “determined. Indeed, oxidative stress (OS), by the generation of toxic reactive oxygen species (ROS) and oxidative damage (oxidation of vital cellular components as lipids, proteins and DNA), is believed to be involved in the pathogenesis of neurodegenerative disorders.” for “determined.”
4-month old C57Bl6 female mice were provided with 0.5, 1 or 3 mg/kg of compound of example 2 dissolved in their drinking water. […] Volume consumed was calculated by weighing each bottle after each week and the remaining volume was discarded. […]

[10] = system: APP metabolism; assay: In vivo APP metabolism assay, acute treatment 24 h p.o.; set-up: species or system C57Bl6 female mice
Method: In Vivo APP Metabolism Assay
as §2
Acute treatment: 24 h p.o.
C57Bl6 female mice were treated per os (gavage) with vehicle or compound (example 2) at 0.25, 0.5, 1, 3 and 6 mg/kg mg/kg (n=6 per group) for 24 h. The product was administered with a disposable Rodent Feeding Tube ECIMED Ref # V0104030 (4 mm×30 mm). The animals were sacrificed after 24 h, the brain was immediately removed for dissection. Levels of CTFα in the frontal cortex (FC) and/or the hippocampus (HIP) were measured by western-blot analysis as previously described. Briefly, tissues were homogenized with […], of lysis buffer (10 mL of Laemmli Pre-Lysis Buffer and 1 tablet of Protease Inhibitor cocktail Complete Mini (Roche)) in a potter. After sonication (5 min), homogenates were centrifuged at 1600 rpm 5 min 4° C. Supernatants were aliquoted and stored at −80° C. before western blot analysis.

[11] = system: SH-5Y5Y cell line; assay: cytotoxicity CC50; type: cell-based, human; conditions: concentration at which 50% of plated cells remain alive
Method: In addition, it is remarked that no cytotoxicity was found for this sulphate salt, its CC50 on SH-5Y5Y cell line was found greater than 30 μM. CC50 is defined herein as the concentration at which 50% of plated cells remain alive.

[12] = Dynamic vapour sorption (DVS) with water; type: physicochemical
Method: Dynamic vapour sorption (DVS) analyses with water were performed on a DVS-Intrisic incubator from SMS Ltd, equipped with DVS-Intrisic Control Software 1.0.
A sample of about 5 to 10 mg, placed in an aluminium pan holder, was submitted to a full-cycle analysis (sorption followed by desorption) under the conditions described in Table 3.
The sample was pre-dried under a stream of dry filtered air until a stable mass was obtained. Relative humidity was then increased by 5% increments. At each step, the sample was allowed to increase until equilibrium is reached (dm/dt criterion), then relative humidity was increased further. Relative humidity was ramped up to 95%. After equilibration at this stage, desorption is started in a similar stepwise manner, with a sample weight allowed to stabilize after each incremental humidity decrease step.
DVS analysis was carried out according to the method described above.

In the case of `CC(C)CN(CCCN1CCN(CCCNc2nc3ccccc3[nH]2)CC1)CC(C)C.O=C(O)C(=O)O.O=C(O)C(=O)O.O=C(O)C(=O)O.O=C(O)C(=O)O` [4 eq oxalate salt, N-(3-(4-(3-(diisobutylamino)propyl)piperazin-1-yl)propyl)-1H-benzo[d]imidazol-2-amine, 4 eq oxalate salt, reference compound], the “crystallinity by XRPD” value [1] was “little or poor crystallinity” and the “crystalline phase by DSC” value [2] was “most well shaped and defined endotherm”.
In the case of `CC(=O)O` [Acetate], the Physical form ([3]; Acid eq. added 1) was “No solid formed, oily residue” and the Physical form ([3]; Acid eq. added 2) was “No solid formed, oily residue”.
In the case of `Cl` [Chloride], the hygroscopicity [4] was “very hygroscopic”.
For `CC(C)CN(CCCN1CCN(CCCNc2nc3ccccc3[nH]2)CC1)CC(C)C` [Example 1, N-(3-(4-(3-(diisobutylamino)propyl)piperazin-1-yl)propyl)-1H-benzo[d]imidazol-2-amine, 2.9 eq sulphate salt], the “crystallinity by XRPD” value ([1]; sulphate salt) was “well good crystalline phase”.
In the case of `CC(C)CN(CCCN1CCN(CCCNc2nc3ccccc3[nH]2)CC1)CC(C)C` [Example 2, N-(3-(4-(3-(diisobutylamino)propyl)piperazin-1-yl)propyl)-1H-benzo[d]imidazol-2-amine, 1.8 eq sulphate salt], the Aβ1-42 levels [5] was “decreased level”, the sAPPα levels [5] was “dose dependent increased levels” and the AICD levels ([5]; western-blot) was “dose dependent increased levels”. The CTFα levels ([5]; western-blot) was “dose dependent increased levels”, the LPO levels [6] was “significant decrease” and the water solubility [7] was “remarkable high solubility”. For the same compound, the “CTFα levels in the frontal cortex” value [8] was “increasing concentrations”, the “CTFβ levels in the hippocampus” value [8] was “decreasing concentrations” and the “AT8 levels (normal Tau protein phosphorylation)” value [9] was “not affecting”. The “AT100 levels (pathological Tau protein phosphorylation)” value [9] was “decreases”, the “CTFα levels in the frontal cortex, comparison to the oxalate salt of WO2006/051489” value ([10]; mice, 6 mg/kg per os) was “superior efficiency” and the “CTFα levels in the frontal cortex” value ([10]; mice, 0.25, 0.5, 1, 3 and 6 mg/kg per os) was “increasing concentrations”. The CC50 [11] was over 30 µM.
For `CC(C)CN(CCCN1CCN(CCCNc2nc3ccccc3[nH]2)CC1)CC(C)C.O=S(=O)(O)O` [Example 3, N-(3-(4-(3-(diisobutylamino)propyl)piperazin-1-yl)propyl)-1H-benzo[d]imidazol-2-amine, 1 eq sulphate salt], the “crystallinity by XRPD” value [1] was “good crystallinity”, the “mass lost upon drying” value ([12]; 25° C./0% RH) was 0.18% and the “remaining amount of water upon desorption” value ([12]; 25° C./0% RH) was 4.6%. For the same compound, the “hygroscopicity (criterion: more than 2% by weight water uptake)” value ([12]; 25° C./60% RH) was “not hygroscopic”, the “water uptake upon sorption” value ([12]; 25° C./60% RH, compared to sample mass after initial drying at 0% RH) was 0.7% and the “residual water remaining upon desorption” value ([12]; 25° C./75% RH as printed, interval 95 to 90% RH) was 10%. For the same compound, the “hysteresis (adsorbed water retained upon desorption)” value ([12]; 25° C./75% RH, interval 75 to 10% RH) was “up to 6.7%”, the “water uptake upon sorption” value ([12]; 25° C./80% RH, compared to sample mass after initial drying at 0% RH) was 1.5% and the “water uptake upon sorption” value ([12]; 25° C./90% RH, compared to sample mass after initial drying at 0% RH) was 9.7%. The “water vapour uptake upon sorption” value ([12]; 25° C./95% RH, compared to sample mass after initial drying at 0% RH) was 19.4%.
For `CC(C)CN(CCCN1CCN(CCCNc2nc3ccccc3[nH]2)CC1)CC(C)C` [Example 4, N-(3-(4-(3-(diisobutylamino)propyl)piperazin-1-yl)propyl)-1H-benzo[d]imidazol-2-amine, 2 eq sulphate salt], the “crystallinity by XRPD” value [1] was “good crystallinity”.
For `CC(C)CN(CCCN1CCN(CCCNc2nc3ccccc3[nH]2)CC1)CC(C)C.O.O.O=S(=O)(O)O` [di-hydrated form of example 3, di-hydrated form of N-(3-(4-(3-(diisobutylamino)propyl)piperazin-1-yl)propyl)-1H-benzo[d]imidazol-2-amine, 1 eq sulphate salt], the “stability and hygroscopicity in second DVS cycle” value ([12]; 25° C., second sorption/desorption cycle) was “stable and non hygroscopic”, the “water uptake for the di-hydrated form, experimentally determined” value ([12]; DVS 25° C.) was 6.7% and the “theoretical water uptake for the di-hydrated form” value ([12]; calculated) was 6.8%.
For Fumarate, the Physical form ([3]; Acid eq. added 1) was “Not crystalline^2” and the “crystalline phase by DSC” value [2] was “not crystalline”.
For Malate, the Physical form ([3]; Acid eq. added 1) was “Powder”.
In the case of Oxalate, the Physical form ([3]; Acid eq. added 2) was “Gum”, the Physical form ([3]; Acid eq. added 3) was “Gum” and the Physical form ([3]; Acid eq. added 4) was “Crystalline powder”.
With Sulphate the Physical form ([3]; Acid eq. added 1) was “Crystalline powder (colorless” and the Physical form ([3]; Acid eq. added 2) was “Crystalline powder (colorless”.
In the case of Tartrate, the Physical form ([3]; Acid eq. added 1) was “Not crystalline^2” and the “crystalline phase by DSC” value [2] was “not crystalline”.
